Measurements taken from PubChem BioAssay AID248 (DTP/NCI, 2004).
Values joined by “and” are separate entries in the source; they are usually repeats but may differ in a detail not shown here. Equal values may be shown once. Toxic doses and inconclusive results are not listed. Rule as the data show it: active = T/C of 150% or more; inactive = T/C below 125%.

Test system: L1210 leukemia ip in BDF1 mice, survival T/C
Assay: NCI In Vivo Anticancer Drug Screen. Data for tumor model L1210 Leukemia (intraperitoneal) in B6D2F1 (BDF1) mice
Details: endpoint: mean survival time, higher = longer survival
Summary of the method: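 Mice bearing the transplanted tumor received compound or vehicle. Survival of the treated group was divided by that of the vehicle-treated control group to give the ratio.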

[1] = dose: 100.0 mg/kg/injection, schedule: Q01DX009 (ip), vehicle: Klucel (hydroxypropylcellulose) (HPC)
[2] = dose: 100.0 mg/kg/injection, schedule: Q04DX003 (ip), vehicle: Klucel (hydroxypropylcellulose) (HPC)
[3] = dose: 200.0 mg/kg/injection, schedule: Q01DX009 (ip), vehicle: Klucel (hydroxypropylcellulose) (HPC)
[4] = dose: 200.0 mg/kg/injection, schedule: Q04DX003 (ip), vehicle: Klucel (hydroxypropylcellulose) (HPC)
[5] = dose: 400.0 mg/kg/injection, schedule: Q01DX009 (ip), vehicle: Klucel (hydroxypropylcellulose) (HPC)
[6] = dose: 400.0 mg/kg/injection, schedule: Q04DX003 (ip), vehicle: Klucel (hydroxypropylcellulose) (HPC)
[7] = dose: 100.0 mg/kg/injection, schedule: Q01DX001 (ip), vehicle: Klucel (hydroxypropylcellulose) (HPC)
[8] = dose: 200.0 mg/kg/injection, schedule: Q01DX001 (ip), vehicle: Klucel (hydroxypropylcellulose) (HPC)
[9] = dose: 200.0 mg/kg/injection, schedule: Q01DX001 (ip), vehicle: saline
[10] = dose: 200.0 mg/kg/injection, schedule: Q01DX009 (ip), vehicle: saline
[11] = dose: 100.0 mg/kg/injection, schedule: Q04DX003 (ip), vehicle: saline
[12] = dose: 200.0 mg/kg/injection, schedule: Q04DX003 (ip), vehicle: saline
[13] = dose: 400.0 mg/kg/injection, schedule: Q04DX003 (ip), vehicle: saline
[14] = dose: 12.5 mg/kg/injection, schedule: Q01DX009 (ip), vehicle: saline
[15] = dose: 25.0 mg/kg/injection, schedule: Q01DX009 (ip), vehicle: saline
[16] = dose: 50.0 mg/kg/injection, schedule: Q01DX009 (ip), vehicle: saline
[17] = dose: 100.0 mg/kg/injection, schedule: Q01DX009 (ip), vehicle: saline
[18] = dose: 100.0 mg/kg/injection, schedule: Q04DX003 (ip), vehicle: saline with Tween-80
[19] = dose: 200.0 mg/kg/injection, schedule: Q04DX003 (ip), vehicle: saline with Tween-80

Measured: T/C

CSC1CCCC(=O)C1 (centres undefined)
inactive: [1] 98 % of control | [2] 96 % of control | [3] 101 % of control | [4] 97 % of control | [5] 96 % of control | [6] 105 % of control

CNC(C)Cc1ccccc1 (centres undefined)
inactive: dose: 1.87 mg/kg/injection, schedule: Q04DX003 (ip), vehicle: saline 103 % of control and 116 % of control | dose: 3.75 mg/kg/injection, schedule: Q01DX009 (ip), vehicle: saline 95 % of control | dose: 3.75 mg/kg/injection, schedule: Q04DX003 (ip), vehicle: saline 106 % of control and 116 % of control | dose: 7.5 mg/kg/injection, schedule: Q01DX009 (ip), vehicle: saline 103 % of control and 98 % of control | dose: 7.5 mg/kg/injection, schedule: Q04DX003 (ip), vehicle: saline 108 % of control and 97 % of control | dose: 15.0 mg/kg/injection, schedule: Q01DX009 (ip), vehicle: saline 100 % of control and 96 % of control | dose: 15.0 mg/kg/injection, schedule: Q04DX003 (ip), vehicle: saline 95 % of control and 111 % of control | dose: 30.0 mg/kg/injection, schedule: Q01DX009 (ip), vehicle: saline 109 % of control and 112 % of control | dose: 30.0 mg/kg/injection, schedule: Q04DX003 (ip), vehicle: saline 92 % of control and 111 % of control | dose: 60.0 mg/kg/injection, schedule: Q01DX009 (ip), vehicle: saline 107 % of control and 108 % of control | dose: 60.0 mg/kg/injection, schedule: Q04DX003 (ip), vehicle: saline 95 % of control

CC[CH2][Sn]([CH2]C)([c]1ccccc1)[c]1ccccc1
inactive: [7] 97 % of control | [8] 106 % of control | dose: 400.0 mg/kg/injection, schedule: Q01DX001 (ip), vehicle: Klucel (hydroxypropylcellulose) (HPC) 101 % of control

CC(C)c1ccc(/C=C2\CSC/C(=C/c3ccc(C(C)C)cc3)C2=O)cc1
inactive: [9] 95 % of control | [10] 91 % of control

C=C(CC)C(=O)OCC
inactive: [11] 105 % of control | [12] 94 % of control | [13] 96 % of control

CC(=O)OC1C=CN(C(C)=O)C(SC23CC4CC(CC(C4)C2)C3)C1O (centres undefined)
inactive: [1] 97 % of control | [3] 97 % of control | [5] 95 % of control

COc1ccc(-c2cc(-c3ccc(Cl)cc3)no2)cc1
inactive: [2] 106 % of control | [4] 92 % of control | [6] 95 % of control

c1ccc([C](c2ccccc2)(c2ccccc2)[Sn]([c]2ccccc2)([c]2ccccc2)[c]2ccccc2)cc1
inactive: dose: 25.6 mg/kg/injection, schedule: Q04DX002 (ip), vehicle: saline with Tween-80 121 % of control | dose: 64.0 mg/kg/injection, schedule: Q04DX002 (ip), vehicle: saline with Tween-80 86 % of control | dose: 160.0 mg/kg/injection, schedule: Q04DX002 (ip), vehicle: saline with Tween-80 86 % of control | dose: 400.0 mg/kg/injection, schedule: Q04DX002 (ip), vehicle: saline with Tween-80 86 % of control

CC(CNN=C(N)N)NN=C(N)N (centres undefined)
inactive: dose: 30.0 mg/kg/injection, schedule: Q01DX Z (ip), vehicle: saline 116 % of control | dose: 60.0 mg/kg/injection, schedule: Q01DX Z (ip), vehicle: saline 100 % of control | dose: 120.0 mg/kg/injection, schedule: Q01DX Z (ip), vehicle: saline 96 % of control

O=C(CCN1CC=C(c2ccccc2)CC1)c1ccc(N2CC=C(c3ccccc3)CC2)cc1
inactive: dose: 75.0 mg/kg/injection, schedule: Q04DX002 (ip), vehicle: saline with Tween-80 100 % of control | dose: 150.0 mg/kg/injection, schedule: Q04DX002 (ip), vehicle: saline with Tween-80 100 % of control | dose: 300.0 mg/kg/injection, schedule: Q04DX002 (ip), vehicle: saline with Tween-80 107 % of control

CCCCCCNC(C)=O
inactive: [14] 92 % of control | [15] 118 % of control | [16] 97 % of control and 90 % of control | [17] 90 % of control | [18] 95 % of control | [10] 97 % of control | [19] 87 % of control

O=C1NC2C=CC1/C=C\C=C/2 (centres undefined)
inactive: dose: 100.0 mg/kg/injection, schedule: Q04DX002 (ip), vehicle: saline 96 % of control | dose: 200.0 mg/kg/injection, schedule: Q04DX002 (ip), vehicle: saline 86 % of control

N#CCCN(NC(=O)OCc1ccccc1)C(=O)OCc1ccccc1
inactive: dose: 100.0 mg/kg/injection, schedule: Q01DX001 (ip), vehicle: carboxymethylcellulose (CMC) 95 % of control | dose: 200.0 mg/kg/injection, schedule: Q01DX001 (ip), vehicle: carboxymethylcellulose (CMC) 89 % of control | dose: 400.0 mg/kg/injection, schedule: Q01DX001 (ip), vehicle: carboxymethylcellulose (CMC) 95 % of control

N#CC12CCC(c3ccccc31)c1ccccc12
inactive: dose: 100.0 mg/kg/injection, schedule: Q04DX002 (ip), vehicle: gum acacia 99 % of control | dose: 200.0 mg/kg/injection, schedule: Q04DX002 (ip), vehicle: gum acacia 101 % of control | dose: 400.0 mg/kg/injection, schedule: Q04DX002 (ip), vehicle: gum acacia 92 % of control

O=c1oc2ccccc2c2c1C(c1ccccc1)C=C(c1ccccc1)O2 (centres undefined)
inactive: [18] 89 % of control | [19] 91 % of control | dose: 400.0 mg/kg/injection, schedule: Q04DX003 (ip), vehicle: saline with Tween-80 92 % of control

CN(CCc1cnc2nc(N)[nH]c(=O)c2n1)c1ccc(C(=O)O)cc1
inactive: dose: 75.0 mg/kg/injection, schedule: Q01DX001 (ip), vehicle: saline 90 % of control | dose: 150.0 mg/kg/injection, schedule: Q01DX001 (ip), vehicle: saline 95 % of control | dose: 300.0 mg/kg/injection, schedule: Q01DX001 (ip), vehicle: saline 94 % of control

BrCc1cccc2cccc(CBr)c12
inactive: dose: 50.0 mg/kg/injection, schedule: Q04DX003 (ip), vehicle: Klucel (hydroxypropylcellulose) (HPC) 97 % of control | [7] 113 % of control | [2] 101 % of control | [8] 111 % of control | [4] 103 % of control

Clc1cc(Cl)c(OCC#CI)c(Cl)c1Cl
inactive: dose: 6.25 mg/kg/injection, schedule: Q01DX009 (ip), vehicle: Klucel (hydroxypropylcellulose) (HPC) 100 % of control | dose: 12.5 mg/kg/injection, schedule: Q01DX009 (ip), vehicle: Klucel (hydroxypropylcellulose) (HPC) 97 % of control | dose: 25.0 mg/kg/injection, schedule: Q01DX009 (ip), vehicle: Klucel (hydroxypropylcellulose) (HPC) 92 % of control | dose: 50.0 mg/kg/injection, schedule: Q01DX009 (ip), vehicle: Klucel (hydroxypropylcellulose) (HPC) 96 % of control | dose: 75.0 mg/kg/injection, schedule: Q01DX009 (ip), vehicle: Klucel (hydroxypropylcellulose) (HPC) 98 % of control | dose: 115.0 mg/kg/injection, schedule: Q01DX009 (ip), vehicle: Klucel (hydroxypropylcellulose) (HPC) 94 % of control | dose: 170.0 mg/kg/injection, schedule: Q01DX009 (ip), vehicle: Klucel (hydroxypropylcellulose) (HPC) 93 % of control

BrCC(CBr)(CBr)CBr
inactive: [17] 103 % of control | [11] 93 % of control | [10] 97 % of control | [12] 100 % of control | [13] 101 % of control

Cn1[nH]c(=S)c(=O)[nH]c1=O
inactive: dose: 100.0 mg/kg/injection, schedule: Q01DX001 (ip), vehicle: saline 111 % of control | [9] 106 % of control | dose: 400.0 mg/kg/injection, schedule: Q01DX001 (ip), vehicle: saline 101 % of control

CC(CCc1ccccc1)NC(C)C(O)c1ccc(O)cc1 (centres undefined)
inactive: dose: 6.25 mg/kg/injection, schedule: Q01DX009 (ip), vehicle: saline 101 % of control | [14] 104 % of control | dose: 12.5 mg/kg/injection, schedule: Q04DX003 (ip), vehicle: saline 94 % of control | [15] 98 % of control | dose: 25.0 mg/kg/injection, schedule: Q04DX003 (ip), vehicle: saline 102 % of control | [16] 97 % of control | dose: 50.0 mg/kg/injection, schedule: Q04DX003 (ip), vehicle: saline 94 % of control | [17] 97 % of control | [11] 89 % of control

CC1C(=O)CCCC1=O
inactive: [1] 101 % of control | [3] 101 % of control | [5] 95 % of control
